# Tests used:
# Type in all cases: cell-based, human
# A2780cis cells [1] = test: Cell count and overall effect (cell count x colony formation) after 72 h drug with or without TTFields
# Experimental: (§1) TTFields were applied to the cells for 72 h in the absence or presence of various concentrations of carboplatin. Synergy was defined when the observed value was lower than that predicted for an additive effect (presented by the red dotted line-calculated by multiplying the observed effects for TTFields alone with that for cisplatin alone).
# The Cytotoxic effect was also determined. Treated cells were counted using a flow cytometer, and cytotoxic effect was calculated relative to control cells.
# Treated cells were harvested, re-plated, and grown for an additional 7-14 days. Colonies were stained (0.5% crystal violet solution), counted, and clonogenic effect was calculated relative to control. The overall effect was calculated by multiplying the cytotoxic and clonogenic effects.
# TTFields application was studied. Ovarian carcinoma cells A2780cis (cisplatin resistant cells) were treated for 72 h with TTFields at an intensity of 1 V/cm RMS and a frequency of 200 kHz using the inovitro system (See FIG. 11).
# as §1, with “PARPi Olaparib and Niraparib.” for “carboplatin.”
# The cytotoxic effect was studied. Treated cells were counted using a flow cytometer, and cytotoxic effect was calculated relative to control cells.
# Treated cells were harvested, re-plated, and grown for an additional 7-14 days. Colonies were stained (0.5% crystal violet solution), counted, and clonogenic effect was calculated relative to control. Overall effect was calculated by multiplying the cytotoxic and clonogenic effects.
# Cells were seeded on coverslip (22 mm diameter; 20×10^3 cells/coverslip for A2780 and A2780cis; 40×10^3 cells/coverslip for OVCAR-3). After overnight incubation, the coverslips were transferred into in vitro dishes containing 2 ml of media. TTFields at a frequency of 200 kHz (and intensity of 1 V/cm RMS) were applied to the cells for 72 hr using the INOVITRO system (Novocure, Haifa, Israel).
# For efficacy outcomes (cell count, overall effect, and apoptosis), various concentrations of carboplatin (MCE MedChemExpress, HY-17393), olaparib (Cayman Chemical, 10621), or niraparib (Cayman Chemical, 20842) were applied, with or without TTFields.
# Cell count was examined following treatment using Cytek Northern Lights flow cytometer (Cytek Biosciences, USA).
# Treated cells were harvested, re-plated in 6-well plates (500 cells/well for A2780 and A2780cis; 1000 for cells/well OVCAR-3), and grown for 7 (A2780 and A2780cis) or 21 (OVCAR-3) days. Colonies were stained with 0.5% crystal violet, quantified with ImageJ, and expressed as percentages relative to control. Overall effect was calculated by multiplying colony formation with the corresponding cell count.
# The surviving fraction predicted for an additive effect between TTFields and drug was calculated per the various drug concentrations by multiplying the actual measured surviving fractions for the individual treatments one by the other (SFcalculated additive=SFTTFields×SFdrug; SF are expressed as probability). Based on the calculated values, a trendline was determined. Additivity, synergy, or antagonism was defined when the calculated additive trendline overlapped, was above, or was below the actual measured line for TTFields+drug, respectively.
# For quantifying the magnitude of TTFields-drug interaction, interaction index (Ii) values were calculated by the Bliss independence method using mortality values (Mx=1−SFx). Per the various drug concentrations, mortality predicted for an additive effect between TTFields and drug (Mcalculated additive=MTTFields+Mdrug−MTTFields×Mdrug) was divided by the actual measured mortality for TTFields+drug.
# A2780cis cells [2] = test: Apoptosis, Annexin V/7-AAD staining, flow cytometer; details: TTFields applied with drug
# Experimental: Apoptosis was also examined. Treated cells were double-stained with FITC-conjugated annexin V (AnnV) and 7-aminoactinomycin D (7AAD), and data acquisition was performed with a flow cytometer.
# Treated cells were double-stained with FITC-conjugated annexin V (AnnV) and 7-aminoactinomycin D (7AAD), and data acquisition was performed with a flow cytometer.
# Treated cells were stained with FITC-conjugated Annexin V (AnnV) and 7-Aminoactinomycin D (7-AAD) using a commercial kit (BioLegend, San Diego, CA, USA), according to the manufacturer's instruction. Data acquisition and analysis were done on the Cytek Northern Lights flow cytometer
# [3] = tested on: γH2AX foci in cell nuclei; test: DNA damage examination by fluorescence microscopy; details: treatment alone, all cell lines (A2780, OVCAR-3, A2780cis), relative to control
# Experimental: For DNA damage and cell cycle examination, the following drug concentrations were selected: For A2780—6 μM carboplatin, 1 μM olaparib, and 0.5 μM niraparib; For OVCAR-3-16 μM carboplatin, 0.5 μM olaparib, and 0.8 μM niraparib; For A2780cis—36 μM carboplatin, 10 μM olaparib, and 1.5 μM niraparib. Treated cells were fixed with 4% paraformaldehyde for 10 min, permeabilized for 20 min with 0.5% Triton X-100 in PBS, and blocked with donkey serum (PBS with 0.3% Triton X-100 and donkey serum 1:100). Cells were incubated at 4° C. overnight with anti-γH2AX antibody (Cell Signaling, Danvers, MA, USA; #9718, 1:400), followed by incubation at room temperature for 1 hr with Alexa Flour 488-conjugated secondary antibody (Jackson Immunoresearch, Cambridge, UK; #711-545-152, 1:500) and […] 4′,6-diamidino-2-phenylindole (DAPI; Sigma Aldrich, Rehovot, Israel). LSM 700 laser scanning confocal system (Zeiss, Gottingen, Germany) was utilized to obtain images, and the mean number of foci per nucleus was determined using the FIJI software with the BioVoxxel plugin.
smiles,measurement,setting,value
O=C(c1cc(Cc2n[nH]c(=O)c3ccccc23)ccc1F)N1CCN(C(=O)C2CC2)CC1 [olaparib],effect of TTFields on the drug-induced overall effect (cell count x colony formation),A2780cis cells [1]; TTFields plus drug vs drug alone,significantly augmented
same,"effect of TTFields on the drug-induced effect, cell count","A2780cis cells [1]; TTFields plus drug vs drug alone, p<0.0001",significantly augmented
same,sensitivity to drug (cell count dose response),"A2780cis cells [1]; drug alone, 72 h, compared among A2780, OVCAR-3, A2780cis",highest resistance
same,type of TTFields-drug interaction (measured vs calculated additive curve),"A2780cis cells [1]; platinum-resistant cells, TTFields 200 kHz, 1 V/cm RMS, 72 h",tendency to synergy
same,effect of TTFields on the apoptotic effect / apoptotic cell fraction,A2780cis cells [2],elevation
same,"levels of γH2AX foci, monotherapy",[3],mild elevation

# — patent publication US20250108213A1, “COMPOSITIONS AND METHODS FOR ENHANCING THE EFFECT OF PLATINUM-BASED SYSTEMIC THERAPY” (NOVOCURE GMBH, priority 2023, published 2025)
